The values that follow come from patent US12295959B2 (priority 2021, dated 2025).

In one test the test system is rat cortical neurons. Kind of test: Neurite outgrowth assay. Details: key: A: Statistically significant mean increase as a percent of DMSO control at 10 μM or less.; B: No statistically significant mean increase as a percent of DMSO control at 10 μM or less. The class given is cell-based. The following applies: 72 h, 10 μM or less, vs DMSO control. The source says: Neurite Outgrowth Assay. Changes in the pattern of neurite outgrowth have been implicated in psychiatric and neurodegenerative disorders as well as traumatic injuries. The discovery of new compounds that can positively affect neuritogenesis are important for developing new therapeutics for neurological diseases. Measurement of neurite outgrowth of rat cortical neurons using an automated image-based assay was used to determine the neuroplastic effects of the compounds of the present invention. The neurite outgrowth assay was performed at Neurofit SAS (France) as described below.
Pregnant Wistar rats (Janvier; France) were used for the study. They were delivered 6 days before their use. Upon arrival at Neurofit animal facility, they were housed one per cage and maintained in a room with controlled temperature (21-22° C.) and a reversed light-dark cycle (12 h/12 h; lights on: 17:30-05:30; lights off: 05:30-17:30) with food and water available ad libitum.
Female Wistar rats of 17 days gestation were killed by cervical dislocation and the fetuses were removed from the uterus. Their brains were placed in ice-cold medium of Leibovitz (L15, Gibco, Fisher bioblock, France). Cortices were dissected and meninges were carefully removed. The cortical neurons were dissociated by trypsinization for 30 min at 37° C. (trypsin-EDTA, Gibco) in presence of 0.1 mg/ml DNAse I (Roche, France). The reaction was stopped by addition of Dulbecco's Modified Eagle Medium (DMEM; Gibco) with 10% of fetal bovine serum (FBS; Gibco). The suspension was triturated with a 10-ml pipette and using a needle syringe 21G and centrifuged at 350×g for 10 min at room temperature. The pellet of dissociated cells was resuspended in a medium consisting of Neurobasal (Gibco) supplemented with 2% B27 supplement (Gibco), 0.5 mM L-Glutamine (Gibco), an antibiotic-antimicotic mixture. Viable cells were counted in a Neubauer cytometer using the trypan blue exclusion test (Sigma). Cells were seeded at a density of 10000 cells per well in 96-well plate (Costar) precoated with poly-L-lysine. Test compound at different concentrations were added to the cultures. Donepezil (positive control) was tested at 250 nM.
After 72 h (3 days) of plating, cultures were fixed with paraformaldehyde in PBS (4%, Sigma) for 30 min at 4° C. Then, cells were successively permeabilized with 0.1% Triton X100 for 30 min, saturated with PBS containing 3% of BSA and were incubated 1 h with anti-beta III tubulin antibody (Sigma) at 1/10 000 in PBS containing 0.5% of BSA. Cells were washed three times with PBS containing 0.5% of BSA, and they were incubated 1 h with goat anti-mouse antibody coupled with AF488 (Invitrogen A 11001) diluted at 1/1000 in PBS containing 0.5% of BSA. Finally, nuclei were staining with DAPI 1 mg/ml at 1/1000 in PBS containing 0.5% of BSA. After rinsing with PBS, the plate was filmed and neurite networks were examined and analyzed using High-Content Screening (CellInsight, Thermo Scientific). The average number of neurites per neuron and the average total length of neurites per neuron were the main parameters analyzed. Analysis of data was performed using analysis of variance (ANOVA). The Fisher's Protected Least Significant Difference test was used for multiple comparisons. A p value≤0.05 was considered significant. The software used is StatView 5.0 from SAS Institut.

The target in test [1] is T1, 5-HT2A (Homo sapiens, UniProt P28223). Kind of test: Serotonin 5-HT2A in vitro cellular IPOne agonism assay (HTRF). The conditions noted are these: CHO-K1 cells, agonist mode. Format: cell-based. Set-up: host or cells: CHO-K1. The procedure: Serotonin 5-HT2A In Vitro Cellular IPOne Agonism Assay. The 5-HT2A IPOne HTRF assay was performed at Epics Therapeutics S.A. (Belgium, FAST-0505I) using conventional methods. Briefly, CHO-K1 cells expressing human recombinant 5-HT2A receptor grown to mid-log phase in culture media without antibiotics were detached with PBS-EDTA, centrifuged, and resuspended in medium without antibiotics buffer. 20,000 cells were distributed in a 96 well plate and incubated overnight at 37° C. with 5% CO2.
For agonist testing, the medium was removed and 20 μl of assay buffer plus 20 μl of test compound or reference agonist are added in each well. The plate was incubated for 60 min. at 37° C. with 5% CO2.
(§1) After addition of the lysis buffer containing IP1-d2 and anti-IP1 cryptate detection reagents, plates were incubated 1-hour at room temperature, and fluorescence ratios were measured according to the manufacturer specification, with the HTRF kit.
Background: Time-resolved FRET reads energy transfer from a long-lived donor to a nearby acceptor.

The target in test [2] is T1, 5-HT2A. In words: Serotonin 5-HT2A in vitro cellular IPOne antagonism assay. Format: cell-based. Details: host or cells: CHO-K1. The following applies: CHO-K1 cells, antagonist mode, reference agonist a-Me-5HT. The protocol:
Serotonin 5-HT2A and 5-HT2C In Vitro Cellular IPOne Antagonism Assay. The 5-HT2A IPOne HTRF assay was performed at Epics Therapeutics S.A. (Belgium, FAST-0505I) in antagonism mode using conventional methods. Briefly, CHO-K1 cells expressing human recombinant 5-HT2A receptor grown to mid-log phase in culture media without antibiotics were detached with PBS-EDTA, centrifuged, and resuspended in medium without antibiotics buffer. 20,000 cells were distributed in a 96 well plate and incubated overnight at 37° C. with 5% CO2.
For antagonist testing, a reference agonist a-Me-5HT was added and fluorescence signal monitored for several minutes, followed by addition of 20 μl of assay buffer plus 20 μl of test compound or reference antagonist ketanserin, in each well. The plate was incubated for 60 min. at 37° C. with 5% CO2.
as §1

In test [3] the target is T1, 5-HT2A. Kind of test: Serotonin 5-HT2A in vitro radioligand binding competition assay ([3H]-DOI). The conditions noted are these: [3H]-DOI competition, membrane extracts. Set-up: purchased Epics Therapeutics S.A. (Belgium) FAST-0505B; host or cells: membrane extracts. The protocol:
Serotonin 5-HT2A In Vitro Radioligand Binding Competition Assay. The 5-HT2A radioligand binding competition assay was performed at Epics Therapeutics S.A. (Belgium, FAST-0505B) using conventional methods. Briefly, competition binding was performed in duplicate in the wells of a 96 well plate (Master Block, Greiner, 786201) containing binding buffer (optimized for each receptor), membrane extracts (amount of protein/well optimized for each receptor), radiotracer [^3H]-DOI (final concentration optimized for each receptor) and test compound. Nonspecific binding was determined by co-incubation with 200-fold excess of cold competitor. The samples were incubated in a final volume of 0.1 ml at a temperature and for a duration optimized for each receptor and then filtered over filter plates. Filters were washed six times with 0.5 ml of ice-cold washing buffer (optimized for each receptor) and 50 μl of Microscint 20 (Packard) was added in each well. The plates were incubated 15 min on an orbital shaker and then counted with a TopCount™ for 1 min/well.

pEC50, pIC50: −log10 of the molar value.

T1 sequence (P28223 whole entry): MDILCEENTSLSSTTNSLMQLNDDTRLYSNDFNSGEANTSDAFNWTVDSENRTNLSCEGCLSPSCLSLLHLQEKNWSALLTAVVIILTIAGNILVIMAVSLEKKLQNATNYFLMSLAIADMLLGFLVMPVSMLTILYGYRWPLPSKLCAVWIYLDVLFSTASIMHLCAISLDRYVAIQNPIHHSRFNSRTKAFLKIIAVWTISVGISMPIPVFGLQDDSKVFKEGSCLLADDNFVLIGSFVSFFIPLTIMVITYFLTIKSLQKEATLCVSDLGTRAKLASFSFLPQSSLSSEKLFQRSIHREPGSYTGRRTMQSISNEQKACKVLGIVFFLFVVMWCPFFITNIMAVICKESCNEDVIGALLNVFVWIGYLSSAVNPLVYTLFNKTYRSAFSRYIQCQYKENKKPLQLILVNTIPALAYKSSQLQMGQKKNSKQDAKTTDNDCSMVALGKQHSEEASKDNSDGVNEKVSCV

As usually defined, the pEC50 is the negative decadic logarithm of the EC50, by convention in mol/L. For orientation: pIC50 means the IC50 on a negative log10 scale, so that one unit is a factor of ten. With `CN1CCc2[nH]c3cc(OCc4ccccc4)ccc3c2CC1` [Compound 1, 8-(benzyloxy)-3-methyl-1,2,3,4,5,6-hexahydroazepino[4,5-b]indole], in the test with rat cortical neurons, the “Increase in Neurite Branching” value is given as “B”, the “Increase in Neurite Length” value is “A” and the “Increase in Neurite Number” value is recorded as “A”. This compound also gave a pEC50 on 5-HT2A [1] of less than 5.00. The compound also had a pIC50 on 5-HT2A [2] of 6.00 to 7.00. The compound also had a negative logarithm of the IC50 (pIC50) on 5-HT2A [3] of 6.00 to 7.00.
`CN1CCc2[nH]c3cccc(OCc4ccccc4)c3c2CC1` [Compound 2, 10-(benzyloxy)-3-methyl-1,2,3,4,5,6-hexahydroazepino[4,5-b]indole]: in the test on rat cortical neurons, the “Increase in Neurite Branching” value was “B”, the “Increase in Neurite Length” value is listed as “A” and the “Increase in Neurite Number” value is given as “A”. Moreover, the negative logarithm of the EC50 (pEC50) at 5-HT2A [1] was less than 5.00. The compound further had a pIC50 on 5-HT2A [2] of 7.00 to 8.00. Besides, the negative-log IC50 (pIC50) at 5-HT2A [3] was greater than 8.00.
`c1ccc(COc2ccc3c4c([nH]c3c2)CCNCC4)cc1` [Compound 3, 8-(benzyloxy)-1,2,3,4,5,6-hexahydroazepino[4,5-b]indole]: in the test on rat cortical neurons, the “Increase in Neurite Branching” value is given as “A”, the “Increase in Neurite Length” value is “A” and the “Increase in Neurite Number” value is recorded as “A”. The compound further had a pEC50 at 5-HT2A [1] of 6.00 to 7.00. Also, the negative logarithm of the IC50 (pIC50) on 5-HT2A [3] is 6.00 to 7.00.
On to `c1ccc(COc2cccc3[nH]c4c(c23)CCNCC4)cc1` [Compound 4, 10-(benzyloxy)-1,2,3,4,5,6-hexahydroazepino[4,5-b]indole], for which, in the test on rat cortical neurons, the “Increase in Neurite Length” value is on record as “B” and the “Increase in Neurite Number” value is on record as “B”. Moreover, at 5-HT2A [1], the pEC50 was greater than 8.00. This compound also showed a pIC50 at 5-HT2A [3] of 7.00 to 8.00.
As to `Cn1c2c(c3ccc(OCc4ccccc4)cc31)CCNCC2` [Compound 5, 8-(benzyloxy)-6-methyl-1,2,3,4,5,6-hexahydroazepino[4,5-b]indole], in the test on rat cortical neurons, the “Increase in Neurite Branching” value is “B”, the “Increase in Neurite Length” value is “B” and the “Increase in Neurite Number” value is on record as “B”. This compound showed a negative logarithm of the EC50 (pEC50) on 5-HT2A [1] of less than 5.00. For the same compound, at 5-HT2A [2], the pIC50 is 6.00 to 7.00. The compound further had a pIC50 on 5-HT2A [3] of 6.00 to 7.00.
Turning to `CN1CCc2c(n(C)c3cc(OCc4ccccc4)ccc23)CC1` [Compound 6, 8-(benzyloxy)-3,6-dimethyl-1,2,3,4,5,6-hexahydroazepino[4,5-b]indole], in the test with rat cortical neurons, the “Increase in Neurite Branching” value is listed as “B”, the “Increase in Neurite Length” value is on record as “B” and the “Increase in Neurite Number” value is reported as “B”. At 5-HT2A [1], this compound gave a pEC50 of less than 5.00. This compound also showed a negative-log IC50 (pIC50) at 5-HT2A [2] of 6.00 to 7.00. This compound gave a pIC50 at 5-HT2A [3] of 6.00 to 7.00.
Take `Fc1ccc(COc2ccc3c4c([nH]c3c2)CCNCC4)cc1` [Compound 7, 8-((4-fluorobenzyl)oxy)~1,2,3,4,5,6-hexahydroazepino[4,5-b]indole]: in the test on rat cortical neurons, the “Increase in Neurite Branching” value is listed as “B”, the “Increase in Neurite Length” value was “B” and the “Increase in Neurite Number” value was “B”. The negative logarithm of the EC50 (pEC50) at 5-HT2A [1] is 6.00 to 7.00. The same compound showed a negative-log IC50 (pIC50) on 5-HT2A [2] of 6.00 to 7.00. The pIC50 at 5-HT2A [3] is 6.00 to 7.00.
In turn, `c1ccc(Oc2ccc3c4c([nH]c3c2)CCNCC4)cc1` [Compound 11, 8-phenoxy-1,2,3,4,5,6-hexahydroazepino[4,5-b]indole] showed a pEC50 at 5-HT2A [1] of 5.00 to 6.00. The pIC50 at 5-HT2A [2] is 6.00 to 7.00; at 5-HT2A [3], 5.00 to 6.00.
The compound `Cn1c2c(c3ccc(Oc4ccccc4)cc31)CCNCC2` [Compound 13, 6-methyl-8-phenoxy-1,2,3,4,5,6-hexahydroazepino[4,5-b]indole] showed a pEC50 at 5-HT2A [1] of 6.00 to 7.00. In addition, the negative logarithm of the IC50 (pIC50) on 5-HT2A [3] was 5.00 to 6.00.
As for `Fc1ccc(Oc2ccc3c4c([nH]c3c2)CCNCC4)cc1` [Compound 15, 8-(4-fluorophenoxy)-1,2,3,4,5,6-hexahydroazepino[4,5-b]indole], in the test with rat cortical neurons, the “Increase in Neurite Branching” value was “A”, the “Increase in Neurite Length” value is “A” and the “Increase in Neurite Number” value is listed as “A”. Also, the negative logarithm of the EC50 (pEC50) on 5-HT2A [1] is 6.00 to 7.00. At 5-HT2A [3], this compound gave a pIC50 of 6.00 to 7.00.
`Cn1c2c(c3ccc(Oc4ccc(F)cc4)cc31)CCNCC2` [Compound 17, 8-(4-fluorophenoxy)-6-methyl-1,2,3,4,5,6-hexahydroazepino[4,5-b]indole]: the pEC50 at 5-HT2A [1] was 6.00 to 7.00. The compound also gave a negative logarithm of the IC50 (pIC50) on 5-HT2A [3] of 6.00 to 7.00.
In the case of `c1ccc(Oc2cccc3[nH]c4c(c23)CCNCC4)cc1` [Compound 20, 10-phenoxy-1,2,3,4,5,6-hexahydroazepino[4,5-b]indole], the “Increase in Neurite Length” value in the test on rat cortical neurons is “B”. This compound showed a pEC50 on 5-HT2A [1] of 7.00 to 8.00. Moreover, the pIC50 on 5-HT2A [3] was 7.00 to 8.00.
Regarding `Fc1ccc(Oc2cccc3[nH]c4c(c23)CCNCC4)cc1` [Compound 21, 10-(4-fluorophenoxy)-1,2,3,4,5,6-hexahydroazepino[4,5-b]indole], in the test with rat cortical neurons, the “Increase in Neurite Branching” value is recorded as “B”, the “Increase in Neurite Length” value is on record as “B” and the “Increase in Neurite Number” value is listed as “B”. At 5-HT2A [1], this compound gave a negative logarithm of the EC50 (pEC50) of 7.00 to 8.00. Besides, at 5-HT2A [3], the pIC50 was 7.00 to 8.00.
For the compound `Cn1c2c(c3c(Oc4ccc(F)cc4)cccc31)CCNCC2` [Compound 23, 10-(4-fluorophenoxy)-6-methyl-1,2,3,4,5,6-hexahydroazepino[4,5-b]indole], the pEC50 on 5-HT2A [1] was 6.00 to 7.00. Also, at 5-HT2A [3], the pIC50 is 7.00 to 8.00.
With `c1ccc(COc2cccc3c4c([nH]c23)CCNCC4)cc1` [Compound 27, 7-(benzyloxy)-1,2,3,4,5,6-hexahydroazepino[4,5-b]indole], in the test with rat cortical neurons, the “Increase in Neurite Length” value was “A”. On 5-HT2A [1], the pEC50 is 6.00 to 7.00. Moreover, the pIC50 on 5-HT2A [3] is 6.00 to 7.00.
